Reference: article PMC9574867, “Discovery and Characterization of Synthesized and FDA-Approved Inhibitors of Clostridial and Bacillary Collagenases” (Journal of Medicinal Chemistry, 2022)
Entries after “also recorded” stand apart in the source; their conditions may differ.

Test system: MDCK II cells challenged with B. cereus AH187 supernatant
Format: cell-based, canine

**Q.** How did the “TEER of MDCK II cells challenged with supernatant” value (shortened to “TEER of MDCK II cells challenged”) turn out when `O=P(O)(O)c1nc2ccc(Br)cc2nc1P(=O)(O)O` [Compound 10, (6-Bromoquinoxaline-2,3-diyl)bis(phosphonic acid)] was run?
**A.** retain the TEER of the challenged cells

**Q.** For `Cc1ccc2nc(P(=O)(O)O)c(P(=O)(O)O)nc2c1` [Compound 11, (6-Methylquinoxaline-2,3-diyl)bis(phosphonic acid)], which “TEER of MDCK II cells challenged” value is on record?
**A.** maintained the TEER of MDCK II cells challenged with B. cereus supernatant

**Q.** `O=P(O)(O)c1nc2cc(Cl)c(Cl)cc2nc1P(=O)(O)O` [Compound 13, (6,7-Dichloroquinoxaline-2,3-diyl)bis(phosphonic acid)] was tested. Which “TEER of MDCK II cells challenged” value did it give?
**A.** retain the TEER of the challenged cells; also recorded: maintained the TEER of MDCK II cells challenged with B. cereus supernatant

**Q.** For `O=P(O)(O)c1nc2ccc(-c3ccc(Cl)cc3)cc2nc1P(=O)(O)O` [Compound 15, (6-(4-Chlorophenyl)quinoxaline-2,3-diyl)bis(phosphonic acid)], which “TEER of MDCK II cells challenged” value is on record?
**A.** maintained the TEER of MDCK II cells challenged with B. cereus supernatant

**Q.** How did the “TEER of MDCK II cells challenged” value turn out when `O=P([O-])(O)C(Sc1ccc(Cl)cc1)P(=O)([O-])O.[Na+].[Na+]` [Tiludronate disodium, reference compound] was run?
**A.** maintained the TEER of MDCK II cells challenged with B. cereus supernatant
